Assay results as given in patent US20040110247A1, “New molecular tools for the rapid assessment of the presence and viability of microorganisms and methods of use” (priority 2002, published 2004).

How the values were obtained:
Type in all cases: cell-based
[1] = tested on: Wild-type (wt) Streptococcus gordonii; experiment: RT-qPCR of 16S rRNA after drug exposure; conditions: reverse transcription of 16S rRNA from total RNA, then qPCR
Description: (§1) 1) Strains and growth conditions: Wild-type (wt) and penicillin tolerant (Tol) Streptococcus gordonii (I. Caldelari et al., Antimicrobial Agents and Chemotherapy, 2000, 44(10):2802-2810) were grown at 37 degrees Celsius, either in brain heart infusion broth (BHI) without aeration, or on Columbia agar supplemented with 3% blood. Quantitative culture was performed by plating serial dilutions of bacterial cultures taken at various time points on penicillinase-containing blood-agar plates. Colonies counts were determined after incubation for […] at 37° C.
(§2) 3) Extraction and purification of bacterial DNA and RNA: (i) Total DNA from 3 ml of culture samples was extracted and purified using the DNeasy Tissue Kit according to the instructions of the manufacturer (Qiagen). […] Total RNA concentrations were determined by spectrophotometry and quality checked on 1% MOPS-agarose gels. […]
(§3) 4) Quantitative Real-Time PCR was performed using the following probe FAM-5′-TTGCACCACTACCAGATGGAC CTGC-3′-TAMRA (SEQ ID NO:3) according to the instruction of the manufacturer (Perkin-Elmer) on Sequence Detection System 5700 (Perkin-Elmer) in a total volume of 50 μl 1×PCR buffer (Gibco) containing 25 pmoles of each primer, […] of fluorescent probe, […] each dNTP and 1.5 UI of Taq DNA polymerase (Gibco). […]

[2] = tested on: penicillin tolerant (Tol) Streptococcus gordonii; experiment: RT-qPCR of 16S rRNA after drug exposure, tolerant mutant control; conditions: same system, Tol as control
Description: as §1, §2, §3

[3] = tested on: Wild-type (wt) Streptococcus gordonii; experiment: Quantitative culture (colony counts) of drug-exposed S. gordonii cultures
Description: as §1

In the case of penicillin, the “16S rRNA amplicons (viability marker) during drug-induced killing” value [1] is reported as “decreased proportionally to cell death”, the “ribosomal RNA amplicons in penicillin-tolerant mutant Tol” value [2] is reported as “remained stable and proportional to viable bacteria” and the loss of viability ([3]; after addition of penicillin, up to 50 hours) is reported as 5 log CFU/ml. For the same substance, the loss of viability ([3]; cultures dramatically killed with penicillin (qualitative PCR experiment)) was > 3 log CFU/ml.
